Tests used:
HER-3 = target: T1, HER-3 (Homo sapiens, UniProt P21860); assay: HER-3 inhibitory assay; format: biochemical
T1 construct: HER-3 cytoplasmic domain (HER-3-CD, amino acids 665–1339); His6 (N); made in house
T1 sequence (P21860 665-1339): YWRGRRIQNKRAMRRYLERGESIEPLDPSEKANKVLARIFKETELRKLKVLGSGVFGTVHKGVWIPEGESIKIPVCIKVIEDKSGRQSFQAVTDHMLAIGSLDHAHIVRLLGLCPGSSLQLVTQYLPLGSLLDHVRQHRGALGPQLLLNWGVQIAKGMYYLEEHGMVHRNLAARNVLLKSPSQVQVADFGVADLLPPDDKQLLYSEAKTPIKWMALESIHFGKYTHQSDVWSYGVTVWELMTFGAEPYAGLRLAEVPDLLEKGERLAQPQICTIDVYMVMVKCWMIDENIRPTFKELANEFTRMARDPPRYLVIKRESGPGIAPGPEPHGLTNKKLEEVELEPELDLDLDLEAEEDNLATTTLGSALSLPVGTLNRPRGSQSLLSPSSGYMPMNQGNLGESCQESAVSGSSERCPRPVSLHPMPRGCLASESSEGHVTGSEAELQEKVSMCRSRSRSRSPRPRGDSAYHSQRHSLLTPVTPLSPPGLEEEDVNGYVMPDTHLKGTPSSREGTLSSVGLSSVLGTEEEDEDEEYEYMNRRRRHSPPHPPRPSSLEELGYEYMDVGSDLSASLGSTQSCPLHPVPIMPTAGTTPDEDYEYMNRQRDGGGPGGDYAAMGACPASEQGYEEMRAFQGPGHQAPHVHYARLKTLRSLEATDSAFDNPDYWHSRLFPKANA
Description: A sequence that encodes (His)6 was located at the 5′ upstream to the HER-2 and EGFR sequences. Sf-9 cells were infected for 3 days for protein expression. Sf-9 cell pellets were solubilized at 0 °C in a buffer at pH 7.4 containing 50 mM HEPES, 10 mM NaCl, 1% Triton, 10 μM ammonium molybdate, 100 μM sodium vanadate, 10 μg/mL aprotinin, 10 μg/mL leupeptin, 10 μg/mL pepstatin, and 16 μg/mL benzamidine, HCl for 20 min followed by 20 min centrifugation. Crude extract supernatant was passed through an equilibrated Ni–NTA superflow packed column and washed with 10 mM and then 100 mM imidazole to remove nonspecifically bound material. Histidine-tagged proteins were eluted with 250 and 500 mM imidazole and dialyzed against 50 mM NaCl, 20 mM HEPES, 10% glycerol and 1 μg/mL each of aprotinin, leupeptin, and pepstatin for 2 h. The entire purification procedure was performed at 4 °C or on ice.
A 1.8 Kb cDNA encoded for human HER-3 cytoplasmic domain (HER-3-CD, amino acids 665–1339) was applied to perform the experiment using the same method as EGFR/HER-2.

EGFR = EGFR (Homo sapiens, UniProt P00533); assay: EGFR autophosphorylation kinase assay (DELFIA/time-resolved fluorometry)
Description: (§1) Both EGFR and HER-2 kinase assays were set up to assess the level of autophosphorylation based on DELFIA/Time-Resolved Fluorometry. […] Then, 10 μL of 5× buffer (containing 20 mM HEPES, 2 mM MnCl2, 100 μM Na3VO4, and 1 mM DTT) and 20 μL of 0.1 mM ATP-50 mM MgCl2 was added for 1 h. Positive and negative controls were included in each plate by incubation of enzyme with or without ATP-MgCl2. At the end of incubation, liquid was aspirated and plates were washed three times with wash buffer. A 75 μL (400 ng) sample of europium-labeled anti-phosphotyrosine antibody was added to each well for another 1 h of incubation. […] The IC50 was obtained from curves of percentage inhibition with eight concentrations of compound. As the contaminants in the enzyme preparation are fairly low, the majority of the signal detected by the anti-phosphotyrosine antibody is from EGFR or HER-2. The experiment was performed for three independent times and in triplicate each time.

HER-2 = HER-2 (Homo sapiens, UniProt P04626); assay: HER-2 autophosphorylation kinase assay (DELFIA/time-resolved fluorometry)
Description: as §1

[1] = tested on: MCF-7 human breast cancer cell line; assay: Anti-proliferation assay (MTT), MCF-7; format: cell-based; settings: MCF7, 24 h
Description: MCF-7 human breast cancer cells was cultured in DMEM/10% fetal bovine serum, in 5% CO2 water saturated atmosphere at 37 °C. MDA-MB-453 human breast cancer cells was cultured in L-15 medium in 100% air at 37 °C. Cell suspensions (10000/mL) were prepared and 100 μL/well dispensed into 96-well plates (Costar) giving 1000 cells/well. The plates were returned to the incubator for 24 h to allow the cells to reattach. These compounds were initially prepared at 20 mM in DMSO. Aliquots (200 μL) were diluted into 20 mL culture medium giving 200 μM, and 10 serial dilutions of 3× prepared. Aliquots (100 μL) of each dilution were added to the wells, giving doses ranging from 100 μM to 0.005 μM. After a further incubated at 37 °C for 24 h in a humidified atmosphere with 5% CO2, the cell viability was assessed by the conventional 3-(4,5-dimethylthiazol-2-yl)-2,5-diphenyltetrazolium bromide (MTT) reduction assay and carried out strictly according to the manufacturer instructions (Sigma). The absorbance at 590 nm was recorded using LX300 Epson Diagnostic micro-plate reader. Then GI50 was calculated using SPSS 13.0 software.

p-EGFR = assay: Western blot p-EGFR in MDA-MB-453; format: cell-based, human; settings: increasing C20 levels
Description: After incubation with compound, cells were harvested and washed with PBS, then lysed in lysis buffer (30 mm Tris, pH 7.5, 150 mm NaCl, 1 mm phenylmethylsulfonyl fluoride, 1 mm Na3VO4, 1% Nonidet P-40, 10% glycerol, and phosphatase and protease inhibitors). After centrifugation at 12,000 g for 5 min, the supernatant was collected as total protein. The concentration of the protein was determined by a BCATM protein assay kit (Pierce, Rockford, IL, USA). The protein samples were separated by 10% SDS–PAGE and subsequently electrotransferred onto a polyvinylidene difluoride membrane (Millipore, Bedford, MA, USA). The membrane was blocked with 5% non-fat milk for 2 h at room temperature. The blocked membrane was probed with the indicated primary antibodies overnight at 4 °C, and then incubated with a horse radish peroxidase (HRP)-coupled secondary antibody.

VEGFR-2 = target: T2, VEGFR-2 (Homo sapiens, UniProt P35968); assay: VEGFR-2 inhibitory assay; format: biochemical
T2 construct: either the phosphorylated or nonphosphorylated form of the VEGFR-2 kinase domain
Description: In a 96-well plate, 5 nM/L of either the phosphorylated or nonphosphorylated form of the VEGFR-2 kinase domain was incubated with selected compounds (10-point titration ranging from 4 μM to 0.1 μM), 1 μM/L gastrin substrate, 20 mM/L Tris-HCl, pH 7.5, 10 mM/L MgCl2, 100 mM/L NaCl, 1.5 mM/L EGTA, 1 mM/L DTT, 0.2 mM/L sodium orthovanadate, and 20 μg/mL BSA for 30 min at 25 °C. ATP was added at a final concentration of 11.8 μM and incubated for 60 min at room temperature. Eu-labeled antiphosphotyrosine pT66 antibody (Perkin- Elmer) was then used for detection. The fluorescence at 665 nM was measured with a Wallac Victor plate reader using a time delay of 50 μs. The experiment was performed for three independent times and in triplicate each time.

T2 sequence (P35968 834-1162 limits assumed, species assumed): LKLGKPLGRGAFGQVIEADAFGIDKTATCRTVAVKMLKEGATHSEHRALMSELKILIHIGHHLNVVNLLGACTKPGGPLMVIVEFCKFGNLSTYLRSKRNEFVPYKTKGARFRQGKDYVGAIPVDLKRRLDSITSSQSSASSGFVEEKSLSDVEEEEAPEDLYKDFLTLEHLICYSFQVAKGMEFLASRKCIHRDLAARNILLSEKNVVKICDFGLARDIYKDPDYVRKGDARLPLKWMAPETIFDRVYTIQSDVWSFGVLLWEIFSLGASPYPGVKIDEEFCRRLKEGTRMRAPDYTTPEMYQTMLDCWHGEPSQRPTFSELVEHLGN
EGFR, sequence (P00533 669-1210): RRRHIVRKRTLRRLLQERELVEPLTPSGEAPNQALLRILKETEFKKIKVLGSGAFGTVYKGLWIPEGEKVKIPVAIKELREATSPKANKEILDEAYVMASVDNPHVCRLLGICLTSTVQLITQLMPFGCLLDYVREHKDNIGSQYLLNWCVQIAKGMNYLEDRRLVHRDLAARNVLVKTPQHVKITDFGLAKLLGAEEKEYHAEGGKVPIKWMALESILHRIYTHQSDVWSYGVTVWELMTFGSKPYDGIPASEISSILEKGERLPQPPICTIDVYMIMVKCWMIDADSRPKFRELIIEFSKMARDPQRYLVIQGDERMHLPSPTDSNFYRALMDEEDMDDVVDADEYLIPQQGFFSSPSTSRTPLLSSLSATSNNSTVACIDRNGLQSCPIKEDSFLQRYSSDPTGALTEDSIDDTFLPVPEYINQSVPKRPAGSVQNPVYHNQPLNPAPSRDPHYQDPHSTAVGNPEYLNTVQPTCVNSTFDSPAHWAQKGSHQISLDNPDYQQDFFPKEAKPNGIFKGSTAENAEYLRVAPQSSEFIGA
HER-2, sequence (P04626 676-1245): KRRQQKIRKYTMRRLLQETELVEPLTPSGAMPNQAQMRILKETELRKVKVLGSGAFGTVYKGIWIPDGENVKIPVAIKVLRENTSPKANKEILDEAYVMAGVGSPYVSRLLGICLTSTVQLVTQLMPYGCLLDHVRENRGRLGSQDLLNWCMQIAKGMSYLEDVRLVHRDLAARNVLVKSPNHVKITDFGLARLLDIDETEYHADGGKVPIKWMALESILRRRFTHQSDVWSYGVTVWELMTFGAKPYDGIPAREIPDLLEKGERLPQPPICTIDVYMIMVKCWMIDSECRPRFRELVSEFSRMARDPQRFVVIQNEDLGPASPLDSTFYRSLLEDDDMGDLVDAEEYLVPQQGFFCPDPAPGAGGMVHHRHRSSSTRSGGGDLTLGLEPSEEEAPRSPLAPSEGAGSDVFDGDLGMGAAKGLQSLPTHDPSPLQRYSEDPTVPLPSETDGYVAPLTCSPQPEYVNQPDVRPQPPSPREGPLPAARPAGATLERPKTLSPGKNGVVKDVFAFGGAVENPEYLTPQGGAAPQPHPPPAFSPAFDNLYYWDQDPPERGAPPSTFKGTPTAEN

## COc1ccc(C2CC(c3ccc4c(c3)OCCO4)=NN2C(N)=S)cc1OC (stereo not drawn) [Compound C20, 3-(2,3-dihydrobenzo[b][1,4]dioxin-6-yl)-5-(3,4-dimethoxyphenyl)-4,5-dihydro-1H-pyrazole-1-carbothioamide]
HER-3
  IC50: 5.2 ± 0.46 µM
EGFR
  IC50: 28.6 ± 2.52 µM
HER-2
  IC50: 0.03 ± 0.002 µM
[1]
  GI50: 11.9 ± 1.06 µM
p-EGFR
  p-EGFR levels: unconspicuous
VEGFR-2
  IC50: 18.4 ± 1.74 µM

Reference: publication PMC4897788, “Design, biological evaluation and 3D QSAR studies of novel dioxin-containing pyrazoline derivatives with thiourea skeleton as selective HER-2 inhibitors” (Scientific Reports, 2016)
